Experimental data as given in patent US9642874B2, “Compositions of selenoorganic compounds and methods of use thereof” (Alltech, Inc., priority 2014, dated 2017).

What was measured:
Foxo3 = experiment: Western blot of pFoxo3T32 in primary mouse hepatocytes; format: cell-based; conditions: 100 nM insulin 6 hours, or Compounds CDE both doses 24 hours + 6 hours
Experimental: The overnight-acclimated hepatocytes were washed twice with PBS (to remove any residual FBS and other additives in the TRL hepatocyte maintenance medium, pretreated with control (water) or selenium Compounds CDE (150 or 300 ppb of each selenium compound) in DMEM/F12 media supplemented with 10% fetal bovine serum (FBS) for 24 hr. These cells were then washed twice with PBS and incubated with the same dose of selenium Compounds CDE (150 or 300 ppb) in the presence or absence of insulin (10 or 100 nM, Sigma), 0.1 mM 8-CPT (Sigma) or 0.5 μM Dex (Sigma) in serum-free and glucose-free DMEM media (Invitrogen) supplemented with 20 mM lactose (Sigma) and 2 mM pyruvate (Sigma) and 15 mM HEPES (Sigma) for another 6 hours. […]
After the above described treatments, primary mouse hepatocytes were rinsed with ice-cold PBS and lysed in the ice-cold RIPA buffer containing complete proteinase and phosphatase inhibitors (Thermo-Fisher Scientific, Waltham, Mass.) on ice for 30 min Cell lysates were collected using a cell scraper and transfer pipette and then centrifuged at 12000×g for 30 min at 4° C. to remove the DNA pellet and obtain the protein extract. Protein levels in the supernatant of these cell lysates were determined using the Pierce Micro-BCA protein assay kit (Thermo Scientific-Piece Biotechnology, Rockford, Ill.) according to the manufacturer's protocol. […]

Insr = Insr mRNA expression (QRT-PCR) in AML-12 cells; format: cell-based, mouse; conditions: insulin alone, 6 hours, without 8-CPT/Dex
Experimental: For RNA analysis of insulin receptor (Insr), insulin like growth factor receptor (Igf1r), and Glucose-6-Phosphatase (G6pc), AML-12 cells were amplified in ITS, Dex and FBS-containing DMEM/F12 media, and cultured on 24-well (6.7×10^4 cells/well) plates in 10% FBS ITS-free DMEM/F12 media with or without Dex overnight. These cells were treated with control (water) or various compounds (diluted in 10% FBS ITS-free DMEM/F12 media with or without Dex) for 6 hours, 24 hours, or 48 hours.
In some experiments, the AML-12 cells were washed twice with PBS after the compound treatments for 24 hours, and then incubated with selenium compounds (150 or 300 ppb of each compound) in the presence or absence of insulin (10 or 100 nM), 0.1 mM 8-CPT (Sigma), or 0.5 μM Dex in serum-free, glucose/phenol red-free DMEM media supplemented with 20 mM lactose and 2 mM pyruvate, and 15 mM HEPES (glucose-production media) for another 6 hours. After treatments, cell media were collected and subjected to glucose assays using Abcam glucose assay kit according to the manufacturer's protocol. […]
Total RNA from these cells was isolated using Trizol (Invitrogen) according to the manufacturer's protocol, and then incubated with DNase I to remove any potential contaminated genomic DNA. […] Three to six samples were analyzed in each treatment group. […]

## insulin: insulin (10 or 100 nM, Sigma) used as comparator and cotreatment
Foxo3
  pFoxo3T32 protein level (in words): significant increase
Insr
  Insr expression: did not increase
